Measurements reported in patent US11524960B2, “Heterobicyclic inhibitors of MAT2A and methods of use for treating cancer” (AGIOS PHARMACEUTICALS, INC., priority 2018, dated 2022).

Key:
[1] = test system: SAM in HCT116 human colon carcinoma cell line engineered to delete the MTAP gene (MTAP −/−); experiment: Cellular assay of target engagement (SAM) by LC-MS/MS; type: cell-based; details: Homo sapiens, HCT-116, 72 h, IC50 score, read-out: Cell 72 h SAM Inhibition (MTAP −/−; Example 276)
Procedure: Measurement of MAT2A activity in cells was made by direct quantitation of the abundance of the product of its enzymatic activity, SAM. Cancer cells were treated with candidate MAT2A inhibitors for a suitable incubation period, and the cells were then lysed using a reagent which quenched any further enzyme activity. Soluble metabolites including SAM were collected and SAM itself was directly measured from the lysate using quantitative LC-MS/MS.
A typical assay was performed using an HCT116 human colon carcinoma cell line which was genetically engineered to delete the MTAP gene (commercially available from Horizon Discovery). This cell line was utilized because it was determined that loss of the MTAP gene predicts sensitivity to MAT2A inhibitors. Cells were plated in 96-well dishes at appropriate cell density. Following 24 hours, cells were then treated with the candidate MAT2A inhibitor. Prior to addition to cells, the compound was first serially diluted in 100% DMSO, typically as a 3-fold serial dilution starting at 500× top dose with 10 dose points including DMSO only control. Compound was then transferred to a working stock plate in cell culture media by adding 5 μl of compound in DMSO to 495 μl of cell culture media. This working stock was then added to cells via a further 5-fold dilution, by adding 25 μl of working stock to 100 μl of cells in culture media. Following compound addition, cells were incubated at 37° C./5% CO2 for 72 hrs.
To quantitate SAM levels following compound treatment, cells were gently washed once in Ammonium Carbonate buffer (75 mM at pH 7.4), placed on dry ice, and lysed with metabolite extraction buffer (80% cold methanol and 20% water (v/v) with acetic acid at 1 M final concentration with 200 ng/mL deuterated d3-SAM as internal control). Following centrifugation at 4° C. at 3,200 rpm for 30 minutes, the supernatant was collected and stored at −80° C. until analysis by Liquid Chromatography with tandem Mass Spectrometry (LC-MS/MS). LC-MS/MS analysis was performed using an API6500 Mass Spectrometer (Sciex, Framingham, Mass., USA) operating in positive ion spray mode and equipped with a Waters UPLC Acquity (Waters, Milford, Mass., USA) BEH Amide column. Multiple Reaction Monitoring data was acquired for SAM and the d3-SAM standard, using a mass transition pair at m/z 399.2→250.1 and 402.2→250.1, respectively. In a typical LC-MS/MS analysis, the initial flow rate was 0.5 ml/min of 25% mobile phase A (acetonitrile and water at 5:95 (v/v) with 1% formic acid and 10 mM ammonium acetate) and 75% mobile phase B (acetonitrile and water at 95:5 (v/v) with 1% formic acid and 10 mM ammonium acetate), 0.2-0.5 minutes with 75%-35% mobile phase B, 25%-65% mobile phase A, at 0.5 min 65% mobile phase A and 35% mobile phase B, 1.0-1.1 minutes with 35%-75% mobile phase B, 65%-25% mobile phase A, at 1.1 min 25% mobile phase A and 75% mobile phase B with a total run time of 1.5 minutes.

[2] = test system: HCT116 MTAP+/+; experiment: Inhibition of cellular proliferation (Cell Titer Glo), HCT116 MTAP+/+; type: cell-based, human; details: Homo sapiens, HCT-116, 96 h, 4 days, IC50 score, read-out: 4 Day Relative Growth Inhibition (MTAP +/+; Example 277)
Procedure: (§1) Test compound impact on cancer cell growth was assessed by treating cancer cells with compound for 4 days and then measuring proliferation using an ATP-based cell proliferation readout (Cell Titer Glo, Promega Corporation).
(§2) In a typical assay an isogenic pair of HCT116 human colon carcinoma cell lines which vary only in MTAP deletion status (HCT116 MTAP+/+ and HCT116 MTAP−/−) were plated in 96-well dishes at appropriate cell density. Following 24 hours, cells were then treated with the candidate MAT2A inhibitor. Prior to addition to cells, the compound was first serially diluted in 100% DMSO, typically as a 3-fold serial dilution starting at 500× top dose with 10 dose points including DMSO only control. Compound was then transferred to a working stock plate in cell culture media by adding 5 μl of compound in DMSO to 495 μl of cell culture media. This working stock was then added to cells via a further 5-fold dilution, by adding 25 μl of working stock to 100 μl of cells in culture media. Following compound addition, cells were incubated at 37° C./5% C02 for 4 days.
(§3) To measure inhibition of cellular proliferation, cells were allowed to equilibrate to room temperature for 30 minutes, and were then treated with 125 μl of Cell Titer Glo reagent. The plate was then covered with aluminum foil and shaken for 15 minutes to ensure complete mixing and full cell lysis. Luminescent signal was then measured using a plate-based luminometer Veritas version 1.9.2 using ATP standard curve to confirm assay reproducibility from run to run. This luminescence measure was converted to a proliferation index by subtracting from each data point the ATP luminescence signal measured from a bank (no cells) well and dividing by the ATP luminescence signal measured in 0.2% DMSO control well adjusted for signal in blank well. Compound activity was then represented as a percentage change in proliferation relative to a within-plate DMSO control against log10 of compound concentration in molar (M) units.

[3] = biological target: T1, MAT2A homodimer (Homo sapiens, UniProt P31153); experiment: Biochemical assay: inhibition of MAT2A (phosphate release, PiColorLock Gold); details: MAT2A IC50 score; read-out: Enzyme Inhibition (Example 275)
T1 construct: inferred from Ni sepharose purification and imidazole elution; made in house; host or cells: Sf9 insect cells, recombinant baculovirus (Bac to Bac, pFASTBAC1)
In short: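 Baculovirus/Sf9-expressed, Ni-purified MAT2A at 4 µg/mL was preincubated with compound for 60 min at 25 °C in 50 mM Tris pH 8.0, 50 mM KCl, 15 mM MgCl2, 0.3 mM EDTA, 0.005% BSA. Substrate mix (500 μM ATP, 400 μM L-methionine) was added and the reaction ran 60 min at 25 °C. Phosphate released stoichiometrically with SAM was measured colorimetrically against a phosphate standard curve.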

[4] = test system: HCT116 MTAP−/−; experiment: Inhibition of cellular proliferation (Cell Titer Glo), HCT116 MTAP−/−; type: cell-based, human; details: Homo sapiens, HCT-116, 96 h, 4 days, IC50 score, read-out: 4 Day Relative Growth Inhibition (MTAP −/−; Example 277)
Procedure: as §1, §2, §3

T1 sequence (P31153 whole entry): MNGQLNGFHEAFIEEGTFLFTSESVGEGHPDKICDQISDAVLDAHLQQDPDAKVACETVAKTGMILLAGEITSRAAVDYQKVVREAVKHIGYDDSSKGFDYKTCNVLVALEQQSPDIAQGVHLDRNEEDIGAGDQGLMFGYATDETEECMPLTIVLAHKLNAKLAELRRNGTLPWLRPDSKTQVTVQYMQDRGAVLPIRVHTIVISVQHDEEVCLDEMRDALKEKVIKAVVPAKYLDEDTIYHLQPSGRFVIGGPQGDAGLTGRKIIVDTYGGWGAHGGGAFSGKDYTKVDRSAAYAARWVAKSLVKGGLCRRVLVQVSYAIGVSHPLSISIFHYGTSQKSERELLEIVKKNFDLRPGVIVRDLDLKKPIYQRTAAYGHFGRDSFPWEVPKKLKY

SMILES	IC50 [1] [µM]	IC50 [2] [µM]	IC50 [3] [µM]	IC50 [4] [µM]
Cc1nc2ccc(-n3cc4cnc(NCC(F)(F)F)nc4c(-c4ccc(Cl)cc4)c3=O)cc2n1C [Example 124, 8-(4-chlorophenyl)-6-(1,2-dimethyl-1H-benzo[d]imidazol-6-yl)-2-((2,2,2-trifluoroethyl)amino)pyrido[4,3-d]pyrimidin-7(6H)-one]	< 0.1	> 10	< 0.1	< 0.1
Cn1cc2cc(-n3cc4ccc(OCC(F)(F)F)nc4c(-c4ccc(C(F)(F)F)nc4)c3=O)ccc2n1 [Example 124-A]	< 0.1	0.1 to 10	< 0.1	0.1 to 10
Cn1cc2cc(-n3cc4ccc(OCC(F)F)nc4c(-c4ccc(OC(F)(F)F)nc4)c3=O)ccc2n1 [Example 125-A]	< 0.1	0.1 to 10	< 0.1	< 0.1
Cn1cc2cc(-n3cc4ccc(OCC(F)F)nc4c(-c4ccc(OC(F)F)cc4)c3=O)ccc2n1 [Example 126-A]	< 0.1	0.1 to 10	< 0.1	< 0.1
O=c1c(-c2ccc(Cl)cc2)c2nc(NCC(F)(F)F)ncc2cn1-c1ccc2ncn(C3CC3)c2c1 [Example 127, 8-(4-chlorophenyl)-6-(1-cyclopropyl-1H-benzo[d]imidazol-6-yl)-2-(2,2,2-trifluoroethylamino)pyrido[4,3-d]pyrimidin-7(6H)-one]	< 0.1	> 10	< 0.1	< 0.1
Cn1cnc2ccc(-n3cc4ccc(OCC(F)(F)F)nc4c(-c4ccc(OC(F)F)nc4)c3=O)cc21 [Example 127-A]	0.1 to 1	0.1 to 10	< 0.1	< 0.1
Cn1cnc2ccc(-n3cc4ccc(OCC(F)(F)F)nc4c(-c4ccc(C(F)(F)F)nc4)c3=O)cc21 [Example 128-A]	< 0.1	0.1 to 10	< 0.1	< 0.1
O=c1c(-c2ccc(Cl)cc2)c2nc(NCC(F)(F)F)ncc2cn1-c1ccc2ncsc2c1 [Example 129, 6-(benzo[d]thiazol-6-yl)-8-(4-chlorophenyl)-2-(2,2,2-trifluoroethylamino)pyrido[4,3-d]pyrimidin-7(6H)-one]	0.1 to 1	> 10	< 0.1	0.1 to 10
CCOc1ccc2cn(-c3ccc(OC)cc3)c(=O)c(-c3ccc(OC(F)F)nc3)c2n1 [Example 129-A]	< 0.1	0.1 to 10	< 0.1	0.1 to 10
Cc1ccc(-c2c(=O)n(-c3ccc4nn(C)cc4c3)cc3ccc(OCC(F)(F)F)nc23)cn1 [Example 130-A]	< 0.1	0.1 to 10	< 0.1	< 0.1
Cn1cc2cc(-n3cc4ccc(OCC(F)(F)F)nc4c(-c4ccc(OC(F)(F)F)nc4)c3=O)ccc2n1 [Example 131-A]	< 0.1	0.1 to 10	< 0.1	0.1 to 10
Cc1c2cc(-n3cc4cnc(NCC(F)(F)F)nc4c(-c4ccc(Cl)cc4)c3=O)ccc2nn1C [Example 132, 8-(4-chlorophenyl)-6-(2,3-dimethyl-2H-indazol-5-yl)-2-(2,2,2-trifluoroethylamino)pyrido[4,3-d]pyrimidin-7(6)-one]	< 0.1	> 10	< 0.1	< 0.1
CCOc1ccc2cn(-c3ccc4ncn(C)c4c3)c(=O)c(-c3ccc(C)nc3)c2n1 [Example 132-A]	< 0.1	0.1 to 10	< 0.1	< 0.1
O=c1c(-c2ccc(Cl)cc2)c2nc(NCC(F)(F)F)ncc2cn1-c1ccc2c(c1)CCO2 [Example 133, 8-(4-chlorophenyl)-6-(2,3-dihydrobenzofuran-5-yl)-2-(2,2,2-trifluoroethylamino)pyrido[4,3-d]pyrimidin-7(6H)-one]	< 0.1	> 10	< 0.1	< 0.1
CCOc1nc2c(-c3ccc(Cl)cc3)c(=O)n(-c3ccc4nn(C)cc4c3)cc2cc1C [Example 134-A]	< 0.1	> 10	< 0.1	< 0.1
